From patent publication US20030199671A1, “Binding molecules for Fc-region polypeptides” (priority 2001, published 2003)
Positions of bridges follow the written chain, without caps; N, C: chain ends. Residues, ends and D or L forms follow the SMILES beside them.

Columns and labels:
[1] = target: Fc (mixture of human plasma IgG isoforms); experiment: Fluorescence anisotropy binding, fluorescein-labeled peptide; settings: pH 8.0, 0.05 M Tris-HCl, 0.2 M NaCl
In short: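 Fluorescence anisotropy with fluorescein-labeled peptide (20 nM or 2 nM) titrated with human plasma IgG isoform or mixed-IgG Fc target. Fc buffer 50 mM Tris-HCl, 200 mM NaCl, pH 8.0, 0.01% Tween 20; IgG buffer PBS, 0.01% Tween 20. Equilibrated 10 minutes at 30° C before polarization read.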

human plasma IgG3 = target: T1, human plasma IgG3 (Homo sapiens, UniProt P01860); experiment: as above
T1 construct: the individual human plasma IgG isoforms: IgG1, IgG2, IgG3, or IgG4; purchased Calbiochem; host or cells: human plasma

human plasma IgG4 = target: T2, human plasma IgG4 (Homo sapiens, UniProt P01861); experiment: as above
T2 construct: the individual human plasma IgG isoforms: IgG1, IgG2, IgG3, or IgG4; purchased Calbiochem; host or cells: human plasma

human IgG [2] = experiment: Static (filterplate) binding capacity
human IgG [3] = experiment: Dynamic (mini-column) binding capacity
Method: These media were used to determine the effect of ligand density on human IgG binding capacity in both static (filterplate) and dynamic (mini-column) modes with commercial immobilized recombinant Protein A (Repligen, IPA400) at a single density as control.
The IgG solution was loaded onto the column at a flow rate of 0.2 ml/minute (170 cm/hr). […] At the end of the loading period, the column was washed with PBS until the absorbance at 280 nm of the column eluant returned to baseline. […] Neutralizing the pH of the eluted fractions was unnecessary since the total IgG eluted was determined by total protein absorbance at 280 nm.
To establish total media capacities, IgG was loaded onto the columns until the absorbances of the column load and flow through streams were identical (loading to full capacity). After washing the column to baseline, bound IgG was eluted and the total amount captured from this elution fraction determined. The total capacity of the media (mg IgG/ml media) as total IgG captured divided by the column bed volume was calculated.
Additionally, column capacities at 10% breakthrough were calculated from the online A280 measurements of column flowthrough streams. The A280 curves obtained for the column of interest and for an equivalent “blank” column containing hydrolyzed Sepharose FF 4 media were aligned. The difference in areas between these curves (for a retained and non-retained target) from the time of injection to the time at which the A280 value for the column of interest had risen to 10% of the maximum A280 absorbance (100%) obtained for the load solution at 100% IgG capture saturation (10% breakthrough) was graphically integrated. A standard curve was used to relate the integrated area to mg IgG bound and capacity calculated as total IgG bound divided by column bed volume.

[4] = pH 9.3, 0.01 M sodium bicarbonate

T2 sequence (P01861 1-327 isoform P01861-1): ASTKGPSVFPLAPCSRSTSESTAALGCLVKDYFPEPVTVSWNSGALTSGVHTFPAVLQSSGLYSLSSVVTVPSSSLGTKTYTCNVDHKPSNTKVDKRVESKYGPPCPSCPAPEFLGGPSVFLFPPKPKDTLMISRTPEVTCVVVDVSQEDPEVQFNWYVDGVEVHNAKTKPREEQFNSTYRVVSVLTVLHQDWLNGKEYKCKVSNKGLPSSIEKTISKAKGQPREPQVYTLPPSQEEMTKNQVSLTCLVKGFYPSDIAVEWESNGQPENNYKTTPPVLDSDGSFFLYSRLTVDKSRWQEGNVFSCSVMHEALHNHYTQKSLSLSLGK
T1 sequence (P01860 1-377 isoform P01860-1): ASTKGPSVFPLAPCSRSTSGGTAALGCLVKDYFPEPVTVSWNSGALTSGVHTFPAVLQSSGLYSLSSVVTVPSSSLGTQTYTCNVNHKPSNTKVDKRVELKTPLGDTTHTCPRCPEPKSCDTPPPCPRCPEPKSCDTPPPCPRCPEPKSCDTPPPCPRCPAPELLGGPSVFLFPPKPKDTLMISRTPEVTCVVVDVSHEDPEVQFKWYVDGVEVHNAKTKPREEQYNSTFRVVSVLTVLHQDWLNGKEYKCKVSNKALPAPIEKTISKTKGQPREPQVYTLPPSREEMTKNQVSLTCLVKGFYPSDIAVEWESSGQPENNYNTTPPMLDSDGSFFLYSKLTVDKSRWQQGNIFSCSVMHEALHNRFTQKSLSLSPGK

Kd [1]: 2.5 ± 0.5 µM
Kd (human plasma IgG3; pH 5.7, 0.01 M Tris-acetate): > 10 µM
Kd (human plasma IgG3; pH 7.4, 0.01 M Tris-HCl): > 10 µM
Kd (human plasma IgG3; pH 7.4, PBS, […] NaCl): > 10 µM
Kd (human plasma IgG3; [4]): > 10 µM
Kd (human plasma IgG4; pH 7.4, 0.01 M Tris-HCl): 1.9 ± 0.4 µM
Kd (human plasma IgG4; pH 7.4, PBS, […] NaCl): 1.9 ± 1.2 µM
Kd (human plasma IgG4; [4]): > 10 µM
Capacity (mg IgG/mL resin) Static (human IgG [2]; Ligand Density 0.19 μM/mL): 1.2 mg IgG/mL resin
Capacity (mg IgG/mL resin) Static (human IgG [2]; Ligand Density 0.86 μM/mL): 9.5 mg IgG/mL resin
Capacity (mg IgG/mL resin) Static (human IgG [2]; Ligand Density 1.63 μM/mL): 15.4 mg IgG/mL resin
Capacity (mg IgG/mL resin) Static (human IgG [2]; Ligand Density 3.20 μM/mL): 19.0 mg IgG/mL resin
Static Cap. (human IgG [2]; Table 18, 25 mg human IgG applied per ml resin, average ligand density 1.9 μmole/ml): 24 mg/mL
Capacity (mg IgG/mL resin) 10% Breakthrough (human IgG [3]; Ligand Density 0.19 μM/mL): 1.1 mg IgG/mL resin
Capacity (mg IgG/mL resin) Total Dynamic (human IgG [3]; Ligand Density 0.19 μM/mL): 1.2 mg IgG/mL resin
Capacity (mg IgG/mL resin) 10% Breakthrough (human IgG [3]; Ligand Density 0.86 μM/mL): 4.4 mg IgG/mL resin
Capacity (mg IgG/mL resin) Total Dynamic (human IgG [3]; Ligand Density 0.86 μM/mL): 8.4 mg IgG/mL resin
Capacity (mg IgG/mL resin) 10% Breakthrough (human IgG [3]; Ligand Density 1.63 μM/mL): 5.9 mg IgG/mL resin
Capacity (mg IgG/mL resin) Total Dynamic (human IgG [3]; Ligand Density 1.63 μM/mL): 10.3 mg IgG/mL resin
Capacity (mg IgG/mL resin) 10% Breakthrough (human IgG [3]; Ligand Density 3.20 μM/mL): 5.5 mg IgG/mL resin
Capacity (mg IgG/mL resin) Total Dynamic (human IgG [3]; Ligand Density 3.20 μM/mL): 16.4 mg IgG/mL resin
Dynamic Cap. (human IgG [3]; Table 18, total dynamic capacity, average ligand density 1.9 μmole/ml): 13 mg/mL
SMILES: CC[C@H](C)[C@@H]1NC(=O)[C@H](CC(C)C)NC(=O)[C@H](CCC(=O)O)NC(=O)CNC(=O)[C@H](Cc2c[nH]c3ccccc23)NC(=O)[C@H]([C@@H](C)O)NC(=O)[C@H]([C@@H](C)O)NC(=O)[C@H](Cc2ccc(O)cc2)NC(=O)[C@H](C(C)C)NC(=O)[C@@H](NC(=O)[C@H](CCSC)NC(=O)[C@H](Cc2c[nH]cn2)NC(=O)[C@H](CC(=O)O)NC(=O)[C@H](CC(=O)O)NC(=O)CNC(C)=O)CSSC[C@@H](C(=O)N[C@@H](CC(=O)O)C(=O)N[C@@H](CC(N)=O)C(=O)N[C@@H](Cc2c[nH]cn2)C(=O)N[C@@H](CCC(=O)O)C(=O)N2CCC[C@H]2C(=O)NCC(=O)N2CCC[C@H]2C(=O)N[C@@H](CCC(=O)O)C(=O)NCC(=O)NCC(=O)NCC(=O)N[C@@H](CCCCN)C(N)=O)NC(=O)[C@H](Cc2c[nH]c3ccccc23)NC1=O [DX249] (Ac-GDDHMCVYTTWGELIWCDNHEPGPEGGGK-NH2; disulfide 6-17)
